{"source": "patent EP0982027A1", "about": "“Taxoid derivatives for treating abnormal cell proliferation of the brain” (RHONE-POULENC RORER S.A., priority 1998, dated 2000)", "assay": "in vivo", "set-up": "species or system female C3H/HeN mice", "details": "mouse; for concentration at 6 h: 6h after dose; for concentration at 8 h: 8h after dose; for concentration at 14 h: 14h after dose; for concentration at 24 h: 24 h after dose; for concentration at 48 h: 48 h after dose; for concentration at 5 min: 5 min after dose; for concentration at 0.25 h: 15 min after dose; for concentration at 0.5 h: 0.5h after dose; for concentration at 0.75 h: 0.75h after dose; for concentration at 1 h: 1h after dose; for Vd: read-out: Vdss; for AUC(0-inf): mean level data", "method": "Groups of female C3H/HeN mice received the product by the intravenous route as a bolus at a dose level of 40 mg.kg^-1 equivalent to 120 mg.m^-2. Blood and brain samples were obtained from all dosed animals sacrificed at intervals up to 72 hours post dose. Brain and corresponding plasma samples have been assayed for product Ia content by an LC-MS/MS assay.\n• Formulation: 2.25 mg.ml^-1 solution containing 5 % Polysorbate 80, 5 % ethanol and 90 % of an aqueous 5 % glucose solution. […]\n• Sampling : Blood by cardiac puncture and liver and brain by dissection after CO2 sacrifice • Sample Times : at 2, 5, 15, 30, 45 minutes, 1, 2, 4, 6, 8, 14, 24, 48 and 72 hours post dose.\nWhole blood was collected into heparinised tubes and corresponding plasma samples were obtained by centrifugation and frozen immediately at -20°C. Tissues were blotted, weighed and frozen immediately at -20°C. All samples were dispatched frozen for analysis. Upon receipt, samples were stored frozen at approximately -18°C pending analysis.\n• Detection: LC-MS/MS (Sciex API III plus) in turbo-ionspray mode\nThe following MS conditions were applied:\nColumn: 75 x 4.6 mm Supelcosil ABZ plus (3 µm). Mobile phase: Acetonitrile/methanol/ammonium acetate (10mM); 40/25/35 v/v/v. Flow rate : 1 ml.min^-1. Temperature : Ambient. Extraction : Plasma: Add 100 µl of acetonitrile to sample (50 µl). Vortex, centrifuge, remove supernatant, add 100 µl of mobile phase and inject 150 µl. Brain : Add 100 µl of acetonitrile to homogenised sample (100 mg of a 1:1 w/w brain with water homogenate) and vortex. Add 1ml of diethyl ether, vortex, centrifuge, remove organic layer and dry under N2. Reconstitute in 200 µl of mobile phase and inject 150 µl. Calibration standards: Plasma : Nine at concentrations of 5, 10, 20, 50, 100, 200, 300, 400 & 500 ng.ml^-1 (product Ia). Prepared by adding suitable aliquots of the product (concentrations = 0.1, 1 or 10 µg.ml^-1) in ethanol to 0.5 ml aliquots of mouse plasma. Each sample was vortexed following drug addition; a 50 µl aliquot was then removed for assay. Brain : Eleven at concentrations of 10, 20, 30, 100, 200, 300, 400, 500, 1000, 2500 & 5000 ng.g^-1 in homogenised mouse brain (1:1 w/w brain with water). Prepared by adding suitable aliquots of the product (concentrations = 1, 10 or 100 µg.ml^-1) in ethanol to 0.5, 1, 3 or 4 g of homogenised mouse brain. Each sample was vortexed following drug addition and a 100 mg aliquot was then removed for assay. Retention times: Drug; product Ia: ∼2.3 min. Extraction efficiency : Plasma : ca.58 % at 200 ng.ml^-1. Brain : ca.41 % at 500 ng.g^-1 and 39 % at 1000 ng.g^-1.\nA biexponential equation was fitted to the profiles using an interactive linear least-square algorithm as part of the SIPHAR package.\nAUC0-∞: Area under the plasma or brain concentration versus time curve from t=0 (start of infusion) to infinity. Initial T1/2: Initial (distribution) half-life. Terminal T1/2: Terminal (elimination) half-life (should be regarded as an estimate only being dependent on sampling frequency in the terminal phase and assay sensitivity). ClT: Total plasma clearance. Vdss: Volume of distribution at steady state. n.a.: Not applicable.", "key": {"[1]": {"details": "brain, iv, 40 mg/kg, 40 mg.kg^-1 i.v., MEAN, read-out: Brain product Ic concentration"}, "[2]": {"details": "brain, iv, 40 mg/kg, 40 mg.kg^-1 i.v., individual animals IV1-IV4, read-out: Brain product Ic concentration"}, "[3]": {"details": "plasma, iv, 40 mg/kg, 40 mg.kg^-1 i.v., MEAN, read-out: Plasma product Ic concentration"}, "[4]": {"details": "plasma, iv, 40 mg/kg, 40 mg.kg^-1 i.v., individual animals IV1-IV4, read-out: Plasma product Ic concentration"}, "[5]": {"details": "plasma, iv, 40 mg/kg, Plasma+, calculated from values ≥ l.o.d. of 4 ng.ml^-1, 40 mg.kg^-1 i.v."}}, "note": "Where two headings read alike, the source gives them in different places."}
{"smiles": "CO[C@H]1C(=O)[C@]2(C)[C@@H](OC)C[C@H]3OC[C@@]3(OC(C)=O)[C@H]2[C@H](OC(=O)c2ccccc2)[C@]2(O)C[C@H](OC(=O)[C@H](O)[C@@H](NC(=O)OC(C)(C)C)c3ccccc3)C(C)=C1C2(C)C", "note": "[product Ia, 4α-acetoxy-2α-benzoyloxy-5β,20-epoxy-1β-hydroxy-7β,10β-dimethoxy-9-oxo-11-taxen-13α-yl (2R,3S)-3 tert-butoxycarbonylamino-2-hydroxy-3-phenylpropionate]", "values": [{"measurement": "concentration at 4 h", "setting": "brain, iv, 40 mg/kg, 40 mg.kg^-1 i.v., 4h after dose, individual animals IV1-IV4, read-out: Brain product Ic concentration", "value": 7910, "unit": "ng/g"}, {"measurement": "concentration at 6 h", "setting": "[1]", "value": 6430, "unit": "ng/g"}, {"measurement": "concentration at 8 h", "setting": "[1]", "value": 8250, "unit": "ng/g"}, {"measurement": "concentration at 8 h", "setting": "[2]", "value": 9070, "unit": "ng/g"}, {"measurement": "concentration at 14 h", "setting": "[1]", "value": 9130, "unit": "ng/g"}, {"measurement": "concentration at 14 h", "setting": "[2]", "value": 9620, "unit": "ng/g"}, {"measurement": "concentration at 24 h", "setting": "[1]", "value": 8670, "unit": "ng/g"}, {"measurement": "concentration at 24 h", "setting": "[2]", "value": 7900, "unit": "ng/g"}, {"measurement": "concentration at 48 h", "setting": "[1]", "value": 7720, "unit": "ng/g"}, {"measurement": "concentration at 48 h", "setting": "[2]", "value": 6660, "unit": "ng/g"}, {"measurement": "concentration at 72 h", "setting": "brain, iv, 40 mg/kg, 40 mg.kg^-1 i.v., 72 h after dose, MEAN, read-out: Brain product Ic concentration", "value": 5250, "unit": "ng/g"}, {"measurement": "concentration at 72 h", "setting": "brain, iv, 40 mg/kg, 40 mg.kg^-1 i.v., 72 h after dose, individual animals IV1-IV4, read-out: Brain product Ic concentration", "value": 5900, "unit": "ng/g"}, {"measurement": "concentration at 2 min", "setting": "brain, iv, 40 mg/kg, 40 mg.kg^-1 i.v., at 2 mins, read-out: brain level at the first sampling time", "value": 7900, "unit": "ng/g"}, {"measurement": "concentration at 72 h", "setting": "brain, iv, 40 mg/kg, 40 mg.kg^-1 i.v., at 72h, read-out: brain concentration at the last sampling time", "value": 5300, "unit": "ng/g"}, {"measurement": "concentration at 2 min", "setting": "plasma, iv, 40 mg/kg, 40 mg.kg^-1 i.v., 2 min after dose, MEAN, read-out: Plasma product Ic concentration", "value": 46900, "unit": "ng/mL"}, {"measurement": "concentration at 2 min", "setting": "plasma, iv, 40 mg/kg, 40 mg.kg^-1 i.v., 2 min after dose, individual animals IV1-IV4, read-out: Plasma product Ic concentration", "value": 53000, "unit": "ng/mL"}, {"measurement": "concentration at 5 min", "setting": "[3]", "value": 34300, "unit": "ng/mL"}, {"measurement": "concentration at 5 min", "setting": "[4]", "value": 36700, "unit": "ng/mL"}, {"measurement": "concentration at 0.25 h", "setting": "[3]", "value": 20500, "unit": "ng/mL"}, {"measurement": "concentration at 0.25 h", "setting": "[4]", "value": 20500, "unit": "ng/mL"}, {"measurement": "concentration at 0.5 h", "setting": "[3]", "value": 10400, "unit": "ng/mL"}, {"measurement": "concentration at 0.5 h", "setting": "[4]", "value": 10800, "unit": "ng/mL"}, {"measurement": "concentration at 0.75 h", "setting": "[3]", "value": 9090, "unit": "ng/mL"}, {"measurement": "concentration at 0.75 h", "setting": "[4]", "value": 7130, "unit": "ng/mL"}, {"measurement": "concentration at 1 h", "setting": "[3]", "value": 6550, "unit": "ng/mL"}, {"measurement": "concentration at 1 h", "setting": "[4]", "value": 6020, "unit": "ng/mL"}, {"measurement": "concentration at 4 h", "setting": "plasma, iv, 40 mg/kg, 40 mg.kg^-1 i.v., 4h after dose, MEAN, read-out: Plasma product Ic concentration", "value": 962, "unit": "ng/mL"}, {"measurement": "concentration at 4 h", "setting": "plasma, iv, 40 mg/kg, 40 mg.kg^-1 i.v., 4h after dose, individual animals IV1-IV4, read-out: Plasma product Ic concentration", "value": 1070, "unit": "ng/mL"}, {"measurement": "concentration at 6 h", "setting": "[3]", "value": 362, "unit": "ng/mL"}, {"measurement": "concentration at 6 h", "setting": "[4]", "value": 449, "unit": "ng/mL"}, {"measurement": "concentration at 8 h", "setting": "[3]", "value": 188, "unit": "ng/mL"}, {"measurement": "concentration at 8 h", "setting": "[4]", "value": 204, "unit": "ng/mL"}, {"measurement": "concentration at 14 h", "setting": "[3]", "value": 56, "unit": "ng/mL"}, {"measurement": "concentration at 14 h", "setting": "[4]", "value": 65, "unit": "ng/mL"}, {"measurement": "concentration at 24 h", "setting": "[3]", "value": 16, "unit": "ng/mL"}, {"measurement": "concentration at 48 h", "setting": "[3]", "value": 2, "unit": "ng/mL"}, {"measurement": "concentration at 4 h", "setting": "plasma, iv, 40 mg/kg, 40 mg.kg^-1 i.v., within 4h, read-out: plasma level", "value": "< 1000", "unit": "ng/mL"}, {"measurement": "half-life", "setting": "plasma, iv, 40 mg/kg, Plasma#, calculated from values ≥ b.l.q. of 20 ng.ml^-1, 40 mg.kg^-1 i.v., read-out: Initial T1/2 (converted)", "value": 12, "unit": "min"}, {"measurement": "half-life", "setting": "plasma, iv, 40 mg/kg, Plasma#, calculated from values ≥ b.l.q. of 20 ng.ml^-1, 40 mg.kg^-1 i.v., read-out: Terminal T1/2 (converted)", "value": 120, "unit": "min"}, {"measurement": "Vd", "setting": "plasma, iv, 40 mg/kg, Plasma#, calculated from values ≥ b.l.q. of 20 ng.ml^-1, 40 mg.kg^-1 i.v.", "value": 2.4, "unit": "L/kg"}, {"measurement": "AUC(0-inf)", "setting": "[5]", "value": 30000, "unit": "ng·h/mL"}, {"measurement": "half-life", "setting": "plasma, iv, 40 mg/kg, Plasma+, calculated from values ≥ l.o.d. of 4 ng.ml^-1, 40 mg.kg^-1 i.v., read-out: Initial T1/2 (converted)", "value": 42, "unit": "min"}, {"measurement": "half-life", "setting": "plasma, iv, 40 mg/kg, Plasma+, calculated from values ≥ l.o.d. of 4 ng.ml^-1, 40 mg.kg^-1 i.v., read-out: Terminal T1/2 (converted)", "value": 372, "unit": "min"}, {"measurement": "Vd", "setting": "[5]", "value": 1.9, "unit": "L/kg"}, {"measurement": "AUC(0-inf)", "setting": "plasma, iv, 40 mg/kg, calculated from values ≥ b.l.q. of 20 ng.ml^-1, 40 mg.kg^-1 i.v.", "value": 29800, "unit": "ng·h/mL"}, {"measurement": "half-life", "setting": "plasma, iv, 40 mg/kg, plasma, 40 mg.kg^-1 i.v., read-out: initial half-life", "value": "≤ 42", "unit": "min"}, {"measurement": "levels in the brain relative to those in the plasma", "setting": "on the basis of AUC0-∞ values, 40 mg.kg^-1 i.v.", "value": "about twenty times"}, {"measurement": "concentration at 24 h", "setting": "plasma, iv, 40 mg.kg^-1 i.v., individual animals IV1-IV4, values flagged blq (below limit of accurate quantification, 20 ng.ml^-1), read-out: Plasma product Ic concentration", "value": 18, "unit": "ng/mL"}, {"measurement": "concentration at 48 h", "setting": "plasma, iv, 40 mg.kg^-1 i.v., individual animals IV1-IV4, blq = below 20 ng.ml^-1, n.d. = not detected (≤ l.o.d. of 4 ng.ml^-1), read-out: Plasma product Ic concentration", "value": 4, "unit": "ng/mL"}, {"measurement": "Cmax at 2 min", "setting": "plasma, iv, 40 mg.kg^-1 i.v., peak at 2 minutes, read-out: plasma peak level (mean)", "value": 46900, "unit": "ng/mL"}, {"measurement": "penetration of the blood brain barrier", "setting": "post-i.v. administration", "value": "readily penetrate the blood brain barrier"}]}
